Data published in paper PMC7118115, “Tumor-penetrating peptide for systemic targeting of Tenascin-C” (Scientific Reports, 2020).

Tests used:
[1] = tested on: WT-GBM; assay: In vivo play-off phage auditioning, WT-GBM tumor; set-up: species or system murine WT-GBM glioblastoma in athymic nude mice; details: phage-displayed peptide; equimolar mix, i.v. 1 × 10^10 pfu/mouse, 2 h circulation, perfusion; Ion-Torrent sequencing; mean, N = 3 mice
Procedure: (§1) Athymic nude mice (Hsd/Athymic Fox1 nu Harlan) were purchased from Envigo (Netherlands) and maintained under standard housing conditions of the Animal Facility of the Institute of Biomedicine and Translational Medicine, University of Tartu (Tartu, Estonia). For orthotropic GBM tumor models, we used NCH421K, P13, and P3 stem cell-like, WT-GBM cells. The individual GBM cells around 2–3 × 10^5 in 3 μL PBS were intracranially implanted into mice brain 2 mm right and 1 mm anterior to the bregma. U87-MG and PC3 subcutaneous models were induced by injecting 2–9 × 10^6 cells in 100 µl PBS subcutaneously into the right flank of 11–15 week old male and female nude mice. All animal experiments were performed in accordance with the procedures approved by the Committee of Animal Experimentation of Estonian Ministry of Agriculture, permits #42 and #48.
(§2) In vivo play-off was used for internally controlled and competitive systemic phage homing studies in mice bearing tumor xenografts. Phages displaying the candidate TNC-C binding peptides and control peptides were individually amplified and purified by precipitation with PEG-8000 (Sigma-Aldrich, St. Louis, MO, USA), followed by […] gradient ultracentrifugation and dialysis. The phages were pooled at equimolar representation (Table 1 for details) and injected iv at 1 × 10^10 pfu (in 200 µl PBS) in tumor-bearing mice, circulated for 2 h, followed by anesthesia and intracardial perfusion with DMEM. The tumors and organs were collected in lysogeny broth (LB) medium containing 1% NP40, and the tissues were homogenized using a hand-held homogenizer. Phages in the tissue lysate were amplified in E.coli, purified by precipitation with PEG-8000, and DNA was extracted using a DNA extraction kit (High Pure PCR Template Preparation Kit; Roche, Basel, Switzerland). Next-generation sequencing of phage genomic DNA with Ion Torrent system (Thermo Fisher Scientific, Waltham, MA, USA) was used to evaluate the representation of each peptide-phage in the input mixture, in tumors and control organs. The FASTQ data from Ion Torrent were processed using a custom python script that identified the barcodes, constant flanking residues, and extracted the reads of the correct length.

[2] = tested on: U87-MG; assay: In vivo play-off phage auditioning, U87-MG tumor; set-up: species or system human glioblastoma in athymic nude mice; details: phage-displayed peptide; equimolar mix, i.v. 1 × 10^10 pfu/mouse, 2 h circulation, perfusion; Ion-Torrent sequencing; mean, N = 3 mice
Procedure: as §1, §2

[3] = tested on: recombinant TNC-C; assay: Cell-free phage binding to TNC-C; set-up: species or system human; details: individual T7 phage clones; Ni-NTA magnetic beads coated with hexahistidine-tagged TNC-C
Procedure: For biopanning on recombinant human TNC-C, we used NNK-encoded CX7C and X7 peptide T7 phage libraries with diversity ~5 × 10^8. Throughout our screens, the selected phages were amplified following plate amplification protocol. The 1st and 4th rounds of biopanning were performed on TNC-C immobilized on Costar 96-Well ELISA plate (#3590, Corning Life Sciences, Tewksbury, MA, USA). Briefly, the multiwell plates were coated with 20 µg/ml recombinant TNC-C in 100 µl of PBS overnight at 4 °C, followed by blocking with 1% bovine serum albumin (BSA) in PBS overnight at 4 °C. The phage library (5 × 10^8 pfu in 100 µl of PBS-BSA) was incubated overnight at 4 °C, followed by 6 washes with PBS containing 1% BSA and 0.1% Tween-20 (washing buffer) to remove background phages, and by phage rescue and amplification in E. coli strain BLT5403 (Novagen, EMD Biosciences, MA, USA)[8]. The subsequent rounds of selection were performed on Ni-NTA Magnetic Agarose Beads (QIAGEN, Hilden, Germany) coated with His-6X tagged TNC-C (30 µg/10 µl beads) at room temperature for 1 h in 400 µl of PBS. The TNC-C beads were washed 3 times with washing buffer, followed by incubation with phages in (5 × 10^8 pfu in 100 µl in washing buffer) at room temperature for 1 h. The background phages were removed by rinsing 6 times with washing buffer, and the bound phages were eluted with 1 ml of PBS containing 500 mM Imidazole and 0.1% NP40.
The eluted phages were titered and amplified for a next round of selection. After 5 rounds of selection, peptide-encoding DNA from a set of 48 phage clones was subjected to Sanger sequencing of peptide-encoding phage DNA[18],[22]. For cell-free binding studies with individual phage clones were incubated with Ni-NTA magnetic beads coated with hexahistidine-tagged TNC-C as above. RPARPAR phage binding to NRP-1-coated beads was used as a positive control. Phage clones displaying heptaglycine peptide (GGGGGGG, G7), or insertless phage clones were used as negative controls. […]
Fig. S13. NRP -1-dependent internalization of PL3 -functionalized AgNPs […]
Supplementary Materials and Methods
Cloning, expression , and purification of TNC-C
Vector Construction. A pF1K (Promega, # FXC00319) derivative plasmid containing full -length cDNA of TNC was used for PCR amplification of cDNA region of TNC-C with Phusion Hot Start II High -Fidelity DNA Polymerase (Thermo Fisher Scientific Inc # F -537L; primer pairs:
5′- CTCCTCT […] -3′ and 5′ -
CAGACA CTCGAG TTATCA TGTAACAATCTC -3′ for domain TNC -C. NdeI and XhoI restriction sites underlined ). The fragments were cloned in the pET28a+ plasmid for TNC -C expression as a n N-terminally His -tagged protein .
Expression and purification of TNC-C. The pET28a+ TNC-C plasmid was used for transformation of E. coli BL21 Rosetta 2 (DE3) pLysS cells (Novagen, #70956). The protein expression was induced by addition of isopropyl β-D-1-thiogalactopyranoside (IPTG) (Sigma, # I6758) to 0.5 mM final concentration and the bacteria were culture d at 18 °C for 16h . Cells were […]
collected by centrifugation, resuspended in ice-cold IMAC buffer (25mM Tris-HCl, 400mM NaCl, 25mM imidazole pH 8, containing EDTA-free protease inhibitor cocktail and DNase I) and lysed by sonification (Bandelin Sonopuls HD 2070, Germany). The cleared bacterial lysate was purified using HiTrap IMAC HP column s (GE Healthcare # 17 -0920-05) on ÄKTA purification system (GE Healthcare ), and the eluate was dialyzed against PBS using 3.5 kDa cut - off 3mL Slide-A-Lyzer Dialysis Cassettes (Thermo Scientific #66330). TNC-C concentration was determined by bicinchoninic acid assay (Thermo Scientific #23227) , and the purity of the proteins was assessed by SDS -PAGE. Mass spectrometry and de novo peptide sequencing were used to confirm the size and sequence of the purified proteins . His-tagged NRP-1 b1b2 domain was expressed and purified as described (Teesalu et al., 2009) .
Single-chain antibodies: The cDNA sequences encoding TNC-C-G11-scFV were retrieved from […]

[4] = tested on: PC3; assay: In vivo play-off phage auditioning, PC3 tumor; set-up: species or system prostate carcinoma in athymic nude mice; details: phage-displayed peptide; equimolar mix, i.v. 1 × 10^10 pfu/mouse, 2 h circulation, perfusion; Ion-Torrent sequencing; mean, N = 3 mice
Procedure: as §1, §2

[5] = tested on: P13; assay: In vivo play-off phage auditioning, P13 tumor; set-up: species or system P13 glioblastoma in athymic nude mice; details: phage-displayed peptide; equimolar mix, i.v. 1 × 10^10 pfu/mouse, 2 h circulation, perfusion; Ion-Torrent sequencing; mean, N = 3 mice
Procedure: as §1, §2

[6] = tested on: Norm. brain; assay: In vivo play-off phage auditioning, normal brain; set-up: species or system athymic nude mice; details: phage-displayed peptide; equimolar mix, i.v. 1 × 10^10 pfu/mouse, 2 h circulation, perfusion; Ion-Torrent sequencing; mean, N = 3 mice
Procedure: as §2

[7] = tested on: P3 SCL; assay: In vivo play-off phage auditioning, P3 SCL tumor; set-up: species or system P3 stem cell-like glioblastoma in athymic nude mice; details: phage-displayed peptide; equimolar mix, i.v. 1 × 10^10 pfu/mouse, 2 h circulation, perfusion; Ion-Torrent sequencing; mean, N = 3 mice
Procedure: as §1, §2

GRLTRVR [Clone-46]
Representation of phage in tumors, WT-GBM [1]: 1.9 fold G7 control phage | Representation of phage in tumors, U87-MG [2]: 0.9 fold G7 control phage | TNC-C binding (fold G7 control phage) [3]: 115 fold G7 control phage | Representation of phage in tumors, PC3 [4]: 0.9 fold G7 control phage | Representation of phage in tumors, P13 [5]: 0.5 fold G7 control phage | Representation of phage in control brain tissue (Norm. brain) [6]: 0.1 fold G7 control phage | Representation of phage in tumors, P3 SCL [7]: 0.5 fold G7 control phage

GGGGGGG [heptaglycine control phage, reference compound]
Representation of phage in tumors, WT-GBM [1]: 1.0 fold G7 control phage | Representation of phage in tumors, U87-MG [2]: 1.0 fold G7 control phage | Representation of phage in tumors, PC3 [4]: 1.0 fold G7 control phage | Representation of phage in tumors, P13 [5]: 1.0 fold G7 control phage | Representation of phage in control brain tissue (Norm. brain) [6]: 1 fold G7 control phage | Representation of phage in tumors, P3 SCL [7]: 1.0 fold G7 control phage

RGRLVRA [Clone-45]
Representation of phage in tumors, WT-GBM [1]: 3 fold G7 control phage | Representation of phage in tumors, U87-MG [2]: 0.8 fold G7 control phage | TNC-C binding (fold G7 control phage) [3]: 737 fold G7 control phage | Representation of phage in tumors, PC3 [4]: 1.8 fold G7 control phage | Representation of phage in tumors, P13 [5]: 0.4 fold G7 control phage | Representation of phage in control brain tissue (Norm. brain) [6]: 0.1 fold G7 control phage | Representation of phage in tumors, P3 SCL [7]: 0.3 fold G7 control phage

AVRGRLRVAKLAAALE [Clone-3]
Representation of phage in tumors, WT-GBM [1]: 1.3 fold G7 control phage | Representation of phage in tumors, U87-MG [2]: 0.8 fold G7 control phage | Representation of phage in tumors, PC3 [4]: 1.0 fold G7 control phage | Representation of phage in tumors, P13 [5]: 0.6 fold G7 control phage | Representation of phage in control brain tissue (Norm. brain) [6]: 0.1 fold G7 control phage | Representation of phage in tumors, P3 SCL [7]: 0.6 fold G7 control phage

CRGVLRRAKLAAALE [Clone-2]
Representation of phage in tumors, WT-GBM [1]: 1.6 fold G7 control phage | Representation of phage in tumors, U87-MG [2]: 0.7 fold G7 control phage | TNC-C binding (fold G7 control phage) [3]: 5955 fold G7 control phage | Representation of phage in tumors, PC3 [4]: 0.9 fold G7 control phage | Representation of phage in tumors, P13 [5]: 0.4 fold G7 control phage | Representation of phage in control brain tissue (Norm. brain) [6]: 0.1 fold G7 control phage | Representation of phage in tumors, P3 SCL [7]: 0.4 fold G7 control phage

RGRLRRVE [Clone 44]
TNC-C binding (fold G7 control phage) [3]: 886 fold G7 control phage

CQRMGVVGAKLAAALE [Clone 36]
TNC-C binding (fold G7 control phage) [3]: 3928 fold G7 control phage
